# “And” between values parts separate entries of the source, which are not always exact repeats. Identical values can stand only once.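 Exposure lasted 48 hours, with cells grown in 96-well plates and compounds tested at five concentrations. GI50 marks 50% less growth. Definition used: TGI = concentration required for complete inhibition of growth.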
# What was measured:
# Test in all cases: growth of human tumour cells (NCI), 48 h
# CCRF-CEM leukemia = system: CCRF-CEM leukemia
# MOLT-4 leukemia = system: MOLT-4 leukemia
# UACC-257 melanoma = system: UACC-257 melanoma
# SK-MEL-5 melanoma = system: SK-MEL-5 melanoma
# MCF7 breast = system: MCF7 breast
# OVCAR-4 ovarian = system: OVCAR-4 ovarian
# SR leukemia = system: SR leukemia
# SF-539 CNS = system: SF-539 CNS
# RXF 393 renal = system: RXF 393 renal
# ACHN renal = system: ACHN renal
Structure (SMILES),GI50 (CCRF-CEM leukemia),TGI (CCRF-CEM leukemia),GI50 (MOLT-4 leukemia),TGI (MOLT-4 leukemia),GI50 (UACC-257 melanoma),TGI (UACC-257 melanoma),GI50 (SK-MEL-5 melanoma),TGI (SK-MEL-5 melanoma),GI50 (MCF7 breast),TGI (MCF7 breast),GI50 (OVCAR-4 ovarian),TGI (OVCAR-4 ovarian),GI50 (SR leukemia),TGI (SR leukemia),GI50 (SF-539 CNS),TGI (SF-539 CNS),GI50 (RXF 393 renal),TGI (RXF 393 renal),GI50 (ACHN renal),TGI (ACHN renal)
COc1ccc(CCN(CC(=O)N(CC(N)=O)C2CCC[C@@H]2OCc2ccccc2)C(=O)CN(C(=O)CN(CCc2ccc(Cl)cc2)C(=O)CN(C(=O)CN(C)Cc2ccccc2F)[C@H](C)C2CCCCC2)[C@H](C)C2CCCCC2)cc1OC (stereo not given in full),1.66 µM,15.1 µM,0.689 µM,2.46 µM,1.09 µM,2.68 µM,1.7 µM,8.62 µM,1.17 µM,> 50 µM,1.95 µM,> 50 µM,0.69 µM,2.23 µM,1.43 µM,4.54 µM,1.49 µM,3.84 µM,2.05 µM,> 50 µM
COc1cc(N2C(=O)[C@H](c3ccccc3)C2c2ccc(SC)cc2)cc(OC)c1OC (stereo not given in full),0.0377 µM,> 100 µM,0.04 µM,> 100 µM,1.66 µM,> 100 µM,0.0266 µM,0.0821 µM,0.0352 µM,> 100 µM,0.0545 µM,> 100 µM,0.0411 µM,> 100 µM,0.0255 µM,0.0697 µM,0.038 µM,> 100 µM,0.0454 µM,> 100 µM
CC(C)(C)c1cc(/C=N/NC(=O)c2ccccc2NC(=O)c2cccs2)c(O)c(C(C)(C)C)c1,0.336 µM,11.7 µM,0.872 µM,20.6 µM,6.18 µM,> 100 µM,0.7 µM,> 100 µM,0.485 µM,> 100 µM,0.193 µM,5.97 µM,0.786 µM,3.6 µM,1.93 µM,22.1 µM,3.02 µM,47.4 µM,0.413 µM,19.2 µM
COc1cc(-c2nc3sc(C)cn3c2/C=C2\C(=O)Nc3ccccc32)c(Br)c(OC)c1OC,43.2 µM,> 100 µM,36.4 µM,> 100 µM,27.4 µM,81.5 µM,19.5 µM,43.2 µM,5.81 µM,43.3 µM,44.1 µM,> 100 µM,28.3 µM,> 100 µM,19.2 µM,38.3 µM,–,–,32.1 µM,> 100 µM
Cc1ccc2cccc(OC(=O)Nc3cccc(C(F)(F)F)c3)c2n1,2.86 µM,19.2 µM,3.61 µM,24.2 µM,3.4 µM,12.9 µM,7.41 µM,20.1 µM,2.26 µM,8.05 µM,2.09 µM,10.3 µM,5.6 µM,> 100 µM,5.42 µM,18.1 µM,5.3 µM,21.9 µM,3.04 µM,12.4 µM
Clc1cc(Cl)c(OCCCCCCN2CCNCC2)c(Cl)c1,1.89 µM,4.31 µM,2.04 µM,4.88 µM,2.77 µM,7.4 µM,1.66 µM,3.06 µM,1.89 µM,4.2 µM,3.48 µM,15.1 µM,2.16 µM,5.64 µM,2.27 µM,5.71 µM,1.7 µM,5.07 µM,2.44 µM,6.11 µM
C#CC(=O)Nc1cccc2c1cc(C)n2-c1nc2c(c(NCc3ccccc3)n1)CCCC2,0.0255 µM,0.0605 µM,0.15 µM,0.443 µM,–,–,0.0985 µM,0.259 µM,0.226 µM,1.23 µM,0.208 µM,0.491 µM,< 0.0201 µM,0.0507 µM,0.172 µM,0.337 µM,0.152 µM,0.311 µM,0.273 µM,0.786 µM
O=C(O)c1cc(=O)cc(C(=O)O)o1,> 100 µM,> 100 µM,> 100 µM,> 100 µM,> 100 µM,> 100 µM,> 100 µM,> 100 µM,> 100 µM,> 100 µM,> 100 µM,> 100 µM,> 100 µM,> 100 µM,> 100 µM,> 100 µM,> 100 µM,> 100 µM,> 100 µM,> 100 µM
COc1cc(CNCCN2C(=O)c3ccc4c5c(ccc(c35)C2=O)C(=O)N(CCNCc2cc(OC)c(OC)c(OC)c2)C4=O)cc(OC)c1OC,–,–,–,–,–,–,–,–,0.262 µM,1.05 µM,0.122 µM,0.398 µM,0.0973 µM,0.311 µM,0.4 µM,1.11 µM,0.251 µM,0.902 µM,0.487 µM,1.12 µM
COc1cc(/C=C2\CCC/C(=C\c3ccc(O)c(OC)c3)C2=O)ccc1O,0.366 µM,12.2 µM and > 100 µM,2.18 µM,25.6 µM and 15.5 µM,1.71 µM,27 µM and 6.74 µM,1.54 µM,6.82 µM and 3.09 µM,2.1 µM,40.5 µM and 9.81 µM,2.54 µM,43.5 µM and 10.6 µM,1.08 µM,–,–,4.42 µM and 5.73 µM,1.43 µM,6.17 µM and 2.94 µM,1.82 µM,4.34 µM and 3.33 µM
O=c1c2ccccc2c(/C=N\NC2=NCCN2)c2oc3ccccc3n12,32.2 µM,> 100 µM,23.8 µM,> 100 µM,> 100 µM,> 100 µM,21.3 µM,41.7 µM,18.5 µM,40.8 µM,23.7 µM,65.7 µM,6.12 µM,> 100 µM,18.1 µM,36.3 µM,21.4 µM,40.2 µM,14.2 µM,29.9 µM
O=[N+]([O-])c1ccc(C(Cl)C(Cl)c2ccc(C(Cl)C(Cl)c3ccc([N+](=O)[O-])cc3[N+](=O)[O-])cc2)c([N+](=O)[O-])c1 (stereo not given),–,1.02 µM,–,> 62 µM,–,5.77 µM,0.172 µM,1.86 µM and 0.335 µM,–,–,0.326 µM,8.21 µM and 3.52 µM,–,> 62 µM,0.466 µM,5.35 µM and 11.6 µM,0.31 µM,2.33 µM and 1.34 µM,0.268 µM,6.04 µM and 0.85 µM

# From PubChem BioAssay (NCI)
